Assay results as given in US20200405697A1, “Antitumor Agent” (Taiho Pharmaceutical Co., Ltd, priority 2017, published 2020).

What was measured:
[1] = test system: A549 (Human lung cancer cell line); assay: Effect of combination of sulfonamide compound and other antitumor agent (CellTiter-Glo, combination index): A549
Procedure: (§1) Each cell line was seeded at 90 L/well to a 96-well culture plate (Thermo Fisher Scientific, Inc.) according to the above tables. The cell-seeded plate was cultured in an incubator set to 37° C. and 500 CO2. On the day following seeding, varying concentrations of the sulfonamide compound and the other antitumor agent were added in combination to the cells. […] The serial dilutions of each compound, or DW was added at 5μL/well to the plate such that each compound and DW, or the sulfonamide compound and the other antitumor agent were combined. […] The plate after the addition was cultured at 37° C. for 3 days under 5% CO2 conditions.
(§2) Three days later, CellTiter-Glo(R) 2.0 Reagent (Promega Corporation) was added at 100 μL/well, and the amount of luminescence was measured using a plate reader EnSpire(R) Multimode Plate Reader (PerkinElmer Co., Ltd.).
(§3) An average value from 3 wells was calculated as to each drug condition from the obtained data, and cell survival rate normalized against control wells supplemented with the vehicle (DW) was calculated. A Fa (fractional inhibition) value was calculated by subtracting the cell survival rate from 1.

[2] = test system: CFPAC-1 (Human pancreatic cancer cell line); assay: Effect of combination of sulfonamide compound and other antitumor agent (CellTiter-Glo, combination index): CFPAC-1;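 note: cells exposed to both agents together for 3 days, viability read by luminescence, normalized to vehicle-treated control wells, mean of triplicate wells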
Procedure: as §1, §2, §3

[3] = Example Compound 14 874 nM + SCH900776 909 nM
[4] = Example Compound 14 1310 nM + SCH900776 1360 nM
[5] = Example Compound 14 1970 nM + SCH900776 2050 nM
[6] = Example Compound 14 2950 nM + SCH900776 3070 nM
[7] = Example Compound 209A 188 nM + SCH900776 909 nM
[8] = Example Compound 209A 282 nM + SCH900776 1360 nM
[9] = Example Compound 209A 635 nM + SCH900776 3070 nM
[10] = Example Compound 235A 231 nM + SCH900776 909 nM
[11] = Example Compound 235A 346 nM + SCH900776 1360 nM
[12] = Example Compound 235A 520 nM + SCH900776 2050 nM
[13] = Example Compound 235A 780 nM + SCH900776 3070 nM
[14] = Example Compound 235A 1170 nM + SCH900776 4610 nM
[15] = Example Compound 5 466 nM + SCH900776 253 nM
[16] = Example Compound 5 700 nM + SCH900776 379 nM
[17] = Example Compound 14 925 nM + SCH900776 253 nM
[18] = Example Compound 14 1390 nM + SCH900776 380 nM
[19] = Example Compound 14 2080 nM + SCH900776 569 nM
[20] = Example Compound 209A 226 nM + SCH900776 253 nM
[21] = Example Compound 209A 508 nM + SCH900776 568 nM
[22] = Example Compound 235A 321 nM + SCH900776 253 nM
[23] = Example Compound 235A 481 nM + SCH900776 379 nM
[24] = Example Compound 235A 722 nM + SCH900776 569 nM

With `Cn1cc(-c2cnn3c(N)c(Br)c([C@@H]4CCCNC4)nc23)cn1` [SCH900776] the CI value [1, 3] was 0.194, the Fa value [1, 3] was 0.6512 and the CI value [1, 4] was 0.184. It also gave a Fa value [1, 4] of 0.7883, a CI value [1, 5] of 0.191 and a Fa value [1, 5] of 0.8714. For the same compound, the CI value [1, 6] was 0.271, the Fa value [1, 6] was 0.8814 and the CI value [1, 7] was 0.180. For the same compound, the Fa value [1, 7] was 0.6553, the CI value [1, 8] was 0.170 and the Fa value [1, 8] was 0.7965. The CI value [1, 9] was 0.273, the Fa value [1, 9] was 0.8744 and the CI value [1, 10] was 0.262. It also gave a Fa value [1, 10] of 0.6135, a CI value [1, 11] of 0.280 and a Fa value [1, 11] of 0.7038. For the same compound, the CI value [1, 12] was 0.275, the Fa value [1, 12] was 0.8035 and the CI value [1, 13] was 0.275. For the same compound, the Fa value [1, 13] was 0.8771, the CI value [1, 14] was 0.430 and the Fa value [1, 14] was 0.8705. It also gave a CI value [2, 15] of 0.283, a Fa value [2, 15] of 0.6428 and a CI value [2, 16] of 0.283. For the same compound, the Fa value [2, 16] was 0.7803, the CI value [2, 17] was 0.465 and the Fa value [2, 17] was 0.4714. For the same compound, the CI value [2, 18] was 0.322, the Fa value [2, 18] was 0.7231 and the CI value [2, 19] was 0.409. It also gave a Fa value [2, 19] of 0.7671, a CI value [2, 20] of 0.385 and a Fa value [2, 20] of 0.5579. The CI value [2, 21] was 0.474, the Fa value [2, 21] was 0.7649 and the CI value [2, 22] was 0.474. It also gave a Fa value [2, 22] of 0.4978, a CI value [2, 23] of 0.382 and a Fa value [2, 23] of 0.7223. The CI value [2, 24] was 0.484 and the Fa value [2, 24] was 0.7722.
